According to patent US9994576B2, “Substituted pyrazolo[3,4-d]pyrimidines as kinase inhibitors” (PRINCIPIA BIOPHARMA INC., priority 2012, dated 2018):

Biological target: protein target (Homo sapiens (Human), UniProt Q06187)
Test: Reversibility of binding (compound in solution before/after denaturation or digestion of target, HPLC-MS/MS)
Details: native (folded) target in excess over compound
Procedure: The following approach was developed to differentiate compounds that form irreversible covalent bond with their targets, such as non-cyano containing acrylamide compounds, from compound that form reversible covalent bond i.e., compounds and/or pharmaceutically acceptable salts of the present disclosure. […] The reactions were then treated with perturbations including both denaturation with 5 M guanidine hydrochloride and digestion with trypsin, disrupting proper folding of the target. […] The concentration of compound in solution was assessed both preceding and following perturbation using high performance liquid chromatography (HPLC) coupled to tandem mass spectrometry.

protein target, sequence (Q06187 whole entry): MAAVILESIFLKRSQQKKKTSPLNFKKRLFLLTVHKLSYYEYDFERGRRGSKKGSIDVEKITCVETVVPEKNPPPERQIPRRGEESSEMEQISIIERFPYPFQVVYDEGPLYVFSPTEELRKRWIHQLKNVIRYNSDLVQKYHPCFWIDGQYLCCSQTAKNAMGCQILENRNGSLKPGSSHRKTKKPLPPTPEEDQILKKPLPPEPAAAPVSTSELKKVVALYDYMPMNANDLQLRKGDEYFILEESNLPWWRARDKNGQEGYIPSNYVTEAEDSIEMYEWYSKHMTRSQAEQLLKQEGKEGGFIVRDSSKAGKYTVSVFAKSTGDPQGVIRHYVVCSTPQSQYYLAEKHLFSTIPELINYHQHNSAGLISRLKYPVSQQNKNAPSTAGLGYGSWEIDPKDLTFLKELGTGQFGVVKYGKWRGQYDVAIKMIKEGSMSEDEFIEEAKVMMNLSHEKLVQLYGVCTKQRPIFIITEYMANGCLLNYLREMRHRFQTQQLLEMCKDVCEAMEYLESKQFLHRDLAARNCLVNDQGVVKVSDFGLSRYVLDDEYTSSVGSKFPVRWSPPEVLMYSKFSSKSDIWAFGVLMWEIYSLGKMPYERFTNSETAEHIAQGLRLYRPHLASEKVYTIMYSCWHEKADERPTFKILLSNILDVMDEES

Structure (SMILES): CN(C1COC1)C(C)(C)C=C(C#N)C(=O)N1CCC[C@H]1Cn1nc(-c2ccc(Oc3ccccc3)cc2F)c2c(N)ncnc21 [Example 10, 2-[(2S)-2-[[4-amino-3-(2-fluoro-4-phenoxy-phenyl)pyrazolo[3,4-d]pyrimidin-1-yl]methyl]pyrrolidine-1-carbonyl]-4-methyl-4-[methyl(oxetan-3-yl)amino]pent-2-enenitrile]
- Compound in solution in the native state?: no
